Earlier results in US9982018B2, “Amatoxin derivatives” ([…] GMBH, priority 2013, dated 2018).

Legend:
RNA polymerase II = RNA polymerase II (Homo sapiens, UniProt P24928); conditions: read-out: KD of complex with RNA polymerase II
[1] = naturally occurring amatoxin lacking the γ-hydroxyl group

Row | Substance | Kd (RNA polymerase II) | toxicity [1]
1 | amanitin | 3 nM | 
2 | amanullin |  | considerably reduced toxicity
